Experimental data published in patent publication US9662318B2, “Bitopic muscarinic agonists and antagonists and methods of synthesis and use thereof” (BARRY UNIVERSITY, INC., priority 2012, dated 2017).
Structures can show the parent of a compound that is named as a salt.

What was measured:
[1] = biological target: T1, M4 muscarinic receptor (Homo sapiens, UniProt P08173); experiment: Accumulation of inositol phosphates in CHO cells; assay type: cell-based; details: for Effect of ligands on basal activity (accumulation of inositol phosphates as percent of accumulation in the absence of the ligand): M4, ligand 0.1 mM, no carbachol
T1 construct: host or cells: Chinese hamster ovary cells
T1 sequence (P08173 1-479): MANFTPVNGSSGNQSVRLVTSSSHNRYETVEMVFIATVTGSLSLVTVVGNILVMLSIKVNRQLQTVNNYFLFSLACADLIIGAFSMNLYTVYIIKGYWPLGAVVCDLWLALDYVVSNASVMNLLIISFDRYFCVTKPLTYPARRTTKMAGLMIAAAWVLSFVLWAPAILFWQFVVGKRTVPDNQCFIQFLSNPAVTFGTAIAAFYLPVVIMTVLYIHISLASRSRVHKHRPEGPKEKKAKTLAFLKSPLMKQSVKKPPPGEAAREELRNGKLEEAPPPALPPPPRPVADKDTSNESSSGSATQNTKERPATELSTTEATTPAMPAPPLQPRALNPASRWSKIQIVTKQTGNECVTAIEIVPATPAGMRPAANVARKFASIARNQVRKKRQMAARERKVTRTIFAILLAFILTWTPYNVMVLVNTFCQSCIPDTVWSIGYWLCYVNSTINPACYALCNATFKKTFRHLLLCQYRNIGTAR

[2] = biological target: T2, M5 muscarinic receptor (Homo sapiens, UniProt P08912); experiment: Accumulation of inositol phosphates in CHO cells; assay type: cell-based; details: for Effect of ligands on basal activity (accumulation of inositol phosphates as percent of accumulation in the absence of the ligand): M5, ligand 0.1 mM, no carbachol
T2 construct: host or cells: CHO (Chinese hamster ovary) cells, stably transfected
T2 sequence (P08912 1-532): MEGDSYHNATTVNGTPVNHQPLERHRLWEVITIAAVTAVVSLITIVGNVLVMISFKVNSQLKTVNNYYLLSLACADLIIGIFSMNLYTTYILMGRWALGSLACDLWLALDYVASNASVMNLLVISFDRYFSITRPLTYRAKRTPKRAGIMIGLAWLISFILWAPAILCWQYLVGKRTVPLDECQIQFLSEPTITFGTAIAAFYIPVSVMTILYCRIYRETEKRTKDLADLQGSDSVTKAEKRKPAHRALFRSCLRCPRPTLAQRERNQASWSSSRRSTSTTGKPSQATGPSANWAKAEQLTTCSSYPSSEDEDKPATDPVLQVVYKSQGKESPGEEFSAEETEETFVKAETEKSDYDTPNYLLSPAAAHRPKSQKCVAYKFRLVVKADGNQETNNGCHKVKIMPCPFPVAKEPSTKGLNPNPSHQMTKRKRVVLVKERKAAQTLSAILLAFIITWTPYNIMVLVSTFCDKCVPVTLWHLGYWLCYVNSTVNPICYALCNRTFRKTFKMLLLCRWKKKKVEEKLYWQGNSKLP

[3] = biological target: T3, M1 muscarinic receptor (Homo sapiens, UniProt P11229); experiment: Competition with [3H]NMS (equilibrium binding, CHO membranes); details: for Ki: read-out: Binding Equilibrium Constants (expressed as pKI) (converted)
T3 sequence (P11229 1-460): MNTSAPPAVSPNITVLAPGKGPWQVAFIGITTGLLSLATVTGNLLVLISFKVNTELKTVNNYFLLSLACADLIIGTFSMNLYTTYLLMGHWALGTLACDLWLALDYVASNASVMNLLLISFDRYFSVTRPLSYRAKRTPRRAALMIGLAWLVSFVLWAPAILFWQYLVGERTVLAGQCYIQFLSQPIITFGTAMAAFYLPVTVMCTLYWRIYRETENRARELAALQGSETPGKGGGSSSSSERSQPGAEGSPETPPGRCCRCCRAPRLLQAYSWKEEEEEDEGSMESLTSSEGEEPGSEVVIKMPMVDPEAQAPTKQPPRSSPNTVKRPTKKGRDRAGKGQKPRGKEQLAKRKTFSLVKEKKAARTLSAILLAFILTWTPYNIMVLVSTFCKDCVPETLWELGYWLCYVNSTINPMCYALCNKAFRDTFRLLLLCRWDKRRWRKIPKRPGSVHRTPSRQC
Description: (§1) All radioligand binding experiments were optimized and carried out as described earlier. Briefly, membranes were incubated in 96-well plates at 30° C. in the incubation medium described. […] Dissociation was initiated by addition of atropine to final concentration of 5 Tested ligands in final concentration of 100 μM were added concurrently with atropine. Incubations were terminated by filtration through Whatman GF/C glass fiber filters (Whatman) using a Brandel cell harvester (Brandel, Gaithersburg, Md., USA). Filters were dried in vacuum for 1 h while heated at 80° C. and then solid scintillator Meltilex A was melted on filters (105° C., 90 s) using a hot plate. The filters were cooled and counted in Wallac Microbeta scintillation counter.
(§2) Inhibition constant KI was calculated as: […]

[4] = biological target: T4, M3 muscarinic receptor (Homo sapiens, UniProt P20309); experiment: as above; details: read-out: Binding Equilibrium Constants (expressed as pKI) (converted)
T4 construct: host or cells: Chinese hamster ovary cells
T4 sequence (P20309 whole entry): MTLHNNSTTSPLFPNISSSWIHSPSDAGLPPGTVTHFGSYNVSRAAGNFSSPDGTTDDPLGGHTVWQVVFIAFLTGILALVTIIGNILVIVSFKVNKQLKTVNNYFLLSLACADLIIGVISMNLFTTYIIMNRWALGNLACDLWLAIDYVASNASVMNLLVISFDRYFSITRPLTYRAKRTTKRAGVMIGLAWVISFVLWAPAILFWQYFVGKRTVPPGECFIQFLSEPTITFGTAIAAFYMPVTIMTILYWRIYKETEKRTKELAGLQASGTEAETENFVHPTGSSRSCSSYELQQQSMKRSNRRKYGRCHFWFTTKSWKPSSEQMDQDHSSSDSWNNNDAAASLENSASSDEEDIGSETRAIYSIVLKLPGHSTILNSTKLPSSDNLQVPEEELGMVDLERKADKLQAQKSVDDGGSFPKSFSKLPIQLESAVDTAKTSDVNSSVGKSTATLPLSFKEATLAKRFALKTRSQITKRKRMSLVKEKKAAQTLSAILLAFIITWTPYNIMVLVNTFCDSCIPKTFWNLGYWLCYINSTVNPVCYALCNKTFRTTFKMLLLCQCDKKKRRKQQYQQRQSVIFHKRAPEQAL
Description: as §1, §2

[5] = biological target: T1, M4 muscarinic receptor; experiment: as above; details: read-out: Binding Equilibrium Constants (expressed as pKI) (converted)
Description: as §1, §2

[6] = biological target: T4, M3 muscarinic receptor; experiment: Accumulation of inositol phosphates in CHO cells; assay type: cell-based; details: ligand 0.1 mM, no carbachol
[7] = biological target: T2, M5 muscarinic receptor; experiment: Competition with [3H]NMS (equilibrium binding, CHO membranes); details: read-out: Binding Equilibrium Constants (expressed as pKI) (converted)
Description: as §1, §2

[8] = biological target: T3, M1 muscarinic receptor; experiment: Accumulation of inositol phosphates in CHO cells; assay type: cell-based; details: ligand 0.1 mM, no carbachol
[9] = tested on: M1-M5 muscarinic receptors; experiment: Accumulation of inositol phosphates, statements over all subtypes; assay type: cell-based, human; details: for functional selectivity of antagonism: from shifts in carbachol EC50, Table 6; for basal functional response (in the absence of carbachol): 0.1 mM, at all receptor subtypes
Description: Antagonism of tested compounds was determined at single high concentration of 0.1 mM.

[10] = biological target: T2, M5 muscarinic receptor; experiment: [3H]NMS saturation binding; details: M5 CHO membranes; binding sites per mg of membrane protein
[11] = tested on: M1-M5 muscarinic receptors; experiment: Competition with [3H]NMS, statements over all subtypes; assay type: binding, human; details: versus other subtypes; from pKI, Table 4

Row | EMAX ([1]; M4 CHO cells, accumulation of inositol phosphates) | EMAX ([2]; M5 CHO cells, accumulation of inositol phosphates) | Ki [3] | Ki [4] | Ki [5] | Effect of ligands on basal activity (accumulation of inositol phosphates as percent of accumulation in the absence of the ligand) [6] | Effect of ligands on basal activity (accumulation of inositol phosphates as percent of accumulation in the absence of the ligand) [1] | Ki [7] | Effect of ligands on basal activity (accumulation of inositol phosphates as percent of accumulation in the absence of the ligand) [8] | Effect of ligands on basal activity (accumulation of inositol phosphates as percent of accumulation in the absence of the ligand) [2] | functional selectivity of antagonism [9] | higher affinity for M1 receptor ([3]; versus other subtypes, from pKI, Table 4) | higher affinity for the M2 and M5 receptors [11] | SMILES | BMAX [10] | basal functional response (in the absence of carbachol) [9]
1 | – | – | 3.16 µM | 2.04 µM | 3.98 µM | 104 ± 4% | 107 ± 4% | 2.45 µM | 104 ± 4% | 104 ± 4% | M1/M5 functionally selective | – | – | CCCCc1ccc(C(=O)OCC[N+]2(C)CCCCC2)cc1 [Compound 13b, 2-(N-Piperidineethyl) p-butylbenzoyl ester N-methyl iodide] | – | –
2 | – | – | 2.51 µM | 3.98 µM | 3.98 µM | – | – | 1.58 µM | 98 ± 9% | 90 ± 10% | – | – | – | CCCCc1ccc(C(=O)OCC[N+]2(C)CC=CCC2)cc1 (stereo not drawn) [Compound 10b, 2-(1,2,5,6-tetrahydropyridine-N-ethyl)-4-butylbenzoate N-methyl iodide] | – | –
3 | – | – | 7.94 µM | 15.8 µM | 25.1 µM | 81 ± 5 % | 73 ± 6 % | 25.1 µM | 85 ± 4 % | 88 ± 3 % | M1/M4 functionally selective antagonists | two to three-fold | – | CCCCc1ccc(C(=O)OCCN2CC=CCC2)cc1 [Compound 9b, 2-(1,2,5,6-tetrahydropyridine-N-ethyl)-4-butylbenzoate hydrochloride] | – | lowered basal functional response
4 | – | – | 3.98 µM | 6.31 µM | 9.77 µM | 103 ± 3% | 106 ± 1% | 5.01 µM | 103 ± 3% | 103 ± 3% | M1/M3 functionally selective antagonist | – | – | CCCCc1ccc(C(=O)OCCN2CCCCC2)cc1 [Compound 14b] | – | –

The next lines start with the compound.

Row | SMILES | EMAX ([1]; M4 CHO cells, accumulation of inositol phosphates) | EMAX ([2]; M5 CHO cells, accumulation of inositol phosphates) | Ki [3] | Ki [4] | Ki [5] | Effect of ligands on basal activity (accumulation of inositol phosphates as percent of accumulation in the absence of the ligand) [6] | Effect of ligands on basal activity (accumulation of inositol phosphates as percent of accumulation in the absence of the ligand) [1] | Ki [7] | Effect of ligands on basal activity (accumulation of inositol phosphates as percent of accumulation in the absence of the ligand) [8] | Effect of ligands on basal activity (accumulation of inositol phosphates as percent of accumulation in the absence of the ligand) [2] | functional selectivity of antagonism [9] | higher affinity for M1 receptor ([3]; versus other subtypes, from pKI, Table 4) | higher affinity for the M2 and M5 receptors [11] | BMAX [10] | basal functional response (in the absence of carbachol) [9]
5 | C[N+](C)(C)CCOC(N)=O [carbachol, Carbachol, reference compound] | 3.3 ± 0.3 fold over basal | 2.5 ± 0.2 fold over basal | – | – | – | – | – | – | – | – | – | – | – | – | –
6 | CCCCOc1ccc(C(=O)OCCN2CC=CCC2)cc1 [Compound 9a, 2-(1,2,5,6-tetrahydropyridine-N-ethyl)-4-butoxybenzoate hydrochloride] | – | – | 6.31 µM | 7.94 µM | 12.6 µM | 100 ± 1% | 100 ± 6% | – | – | – | – | – | – | – | –
7 | C[N+]1(C)[C@@H]2C[C@@H](OC(=O)[C@H](CO)c3ccccc3)C[C@H]1[C@@H]1O[C@@H]12 [NMS, N-methyl scopolamine] | – | – | – | – | – | – | – | – | – | – | – | – | – | 1.0 ± 0.1 pmol/mg | –
8 | CCCCOc1ccc(C(=O)OCC[N+]2(C)CC=CCC2)cc1 (stereo not drawn) [Compound 10a, 2-(1,2,5,6-tetrahydropyridine-N-ethyl)-4-butoxybenzoate N-methyl iodide] | – | – | 2.51 µM | 6.31 µM | 7.94 µM | 74 ± 3 % | 74 ± 7 % | 3.16 µM | 83 ± 3 % | 89 ± 3 % | – | – | – | – | lowered basal functional response
9 | CCCCCCOc1ccc(C(=O)OCC[N+]2(C)CC=CCC2)cc1 (stereo not drawn) [Compound 10c, 2-(1,2,5,6-tetrahydropyridine-N-ethyl)-4-hexoxybenzoate N-methyl iodide] | – | – | – | 0.398 µM | 0.398 µM | 101 ± 1% | 100 ± 2% | 0.158 µM | 101 ± 1% | 101 ± 1% | – | – | one to three fold | – | –
